For 8 molecules, MIC and ED50 results are on record in ChEMBL document CHEMBL1124865, “Synthesis and biological evaluation of a series of parenteral 3'-quaternary ammonium cephalosporins” (J Med Chem, 1990).

≈ marks a conversion by molar mass, not a printed value. Where only a bound is given, the exact number is not on record here.

What all share (format): functional
Test [1] has as its system Staphylococcus aureus. As to the kind of experiment: Antibacterial activity against penicillin G resistance Staphylococcus aureus. The settings on record: Staphylococcus aureus; read-out: MIC.
Test [2] relates to Pseudomonas aeruginosa. As to the kind of experiment: Antibacterial activity against Pseudomonas aeruginosa X528. To be noted: Pseudomonas aeruginosa; read-out: MIC.
For test [3], the system named is Klebsiella pneumoniae. The test is described as follows: microbe, parasite or virus in culture. The settings on record: Klebsiella pneumoniae; read-out: MIC.
Description: Antibacterial activity against Klebsiella pneumoniae 1082E
Another test relates to Serratia marcescens. The test is described as follows: Antibacterial activity against Serratia marcescens SE3. To be noted: Serratia marcescens; read-out: MIC.
The test system of test [4] is Klebsiella pneumoniae. As to the kind of experiment: Antibacterial activity against Klebsiella pneumoniae X26.
Test [5] relates to Escherichia coli. As to the kind of experiment: Antibacterial activity against Escherichia coli TEM.
For the next test, the system named is Enterococcus faecium. As to the kind of experiment: Antibacterial activity against Enterococcus faecium. The settings on record: Enterococcus faecium; read-out: MIC.
Test [6] has as its system Staphylococcus aureus. As to the kind of experiment: Antibacterial activity against penicillin G susceptible Staphylococcus aureus. The settings on record: Staphylococcus aureus; read-out: MIC.
Test [7] deals with Escherichia coli. As to the kind of experiment: Antibacterial activity against Escherichia coli EC14. To be noted: Escherichia coli; read-out: MIC.
Test [8] concerns Enterobacter cloacae. As to the kind of experiment: Antibacterial activity against Enterobacter cloacae EB5. The settings on record: Enterobacter cloacae; read-out: MIC.
The test system of test [9] is Pseudomonas aeruginosa. As to the kind of experiment: Antibacterial activity against Pseudomonas aeruginosa PS18. To be noted: Pseudomonas aeruginosa; read-out: MIC.
The test system of the next test is Streptococcus pneumoniae. As to the kind of experiment: Antibacterial activity against Streptococcus pneumoniae. The settings on record: Streptococcus pneumoniae; read-out: MIC.
In test [10] the test system is Enterobacter cloacae. As to the kind of experiment: Antibacterial activity against Enterobacter cloacae 265A. The settings on record: Enterobacter cloacae; read-out: MIC.
The next test has as its system Streptococcus pyogenes. The test is described as follows: Antibacterial activity against Streptococcus pyogenes. To be noted: Streptococcus pyogenes; read-out: MIC.
Test [11] concerns Staphylococcus aureus. As to the kind of experiment: In vivo efficacy against Staphylococcus aureus infected mice treated at 1 hr and 5 hr post infection.
Setting [12] is: Klebsiella pneumoniae, read-out: MIC.
The mark [13] stands for this setting: Escherichia coli, read-out: MIC.

Consider `CO/N=C(\C(=O)N[C@@H]1C(=O)N2C(C(=O)[O-])=C(C[n+]3csc(CCOC=O)c3C)CS[C@H]12)c1csc(N)n1`, for which the MIC in the test on Staphylococcus aureus [1] worked out at 2 µg/mL (≈ 3.53 µM); with Pseudomonas aeruginosa [2] it was 8 µg/mL (≈ 14.1 µM); in the test on Klebsiella pneumoniae [3] it was 4 µg/mL (≈ 7.06 µM); in the test with Serratia marcescens it was 0.06 µg/mL (≈ 0.106 µM); in the test on Klebsiella pneumoniae [4] (setting [12]) it was 0.015 µg/mL (≈ 0.0265 µM); with Escherichia coli [5] (setting [13]) it was 0.03 µg/mL (≈ 0.0529 µM). In addition, the MIC in the test with Enterococcus faecium came to 16 µg/mL (≈ 28.2 µM); with Staphylococcus aureus [6] it was 1 µg/mL (≈ 1.76 µM); in the test with Escherichia coli [7], 0.03 µg/mL (≈ 0.0529 µM); with Enterobacter cloacae [8] it was 0.06 µg/mL (≈ 0.106 µM); in the test on Pseudomonas aeruginosa [9], 16 µg/mL (≈ 28.2 µM); in the test with Streptococcus pneumoniae, 0.015 µg/mL (≈ 0.0265 µM). Further, the MIC in the test with Enterobacter cloacae [10] was found to be 2 µg/mL (≈ 3.53 µM); in the test with Streptococcus pyogenes, 0.015 µg/mL (≈ 0.0265 µM).

Take `CO/N=C(\C(=O)N[C@@H]1C(=O)N2C(C(=O)[O-])=C(C[n+]3cccc4ccoc43)CS[C@H]12)c1csc(N)n1`: the MIC in the test on Staphylococcus aureus [1] is 16 µg/mL (≈ 31.1 µM); in the test on Pseudomonas aeruginosa [2] it was 4 µg/mL (≈ 7.77 µM); in the test on Klebsiella pneumoniae [3], 4 µg/mL (≈ 7.77 µM); in the test with Serratia marcescens it was 0.125 µg/mL (≈ 0.243 µM); with Klebsiella pneumoniae [4] (setting [12]), less than 0.008 µg/mL; in the test on Escherichia coli [5] (setting [13]), 0.06 µg/mL (≈ 0.117 µM). In addition, the MIC in the test on Enterococcus faecium is more than 128 µg/mL; with Staphylococcus aureus [6], 2 µg/mL (≈ 3.89 µM); with Escherichia coli [7] it was less than 0.008 µg/mL; in the test with Enterobacter cloacae [8], 0.125 µg/mL (≈ 0.243 µM); in the test with Pseudomonas aeruginosa [9], 16 µg/mL (≈ 31.1 µM); in the test on Streptococcus pneumoniae it was less than 0.008 µg/mL. Besides, the MIC in the test with Enterobacter cloacae [10] is 8 µg/mL (≈ 15.5 µM); in the test on Streptococcus pyogenes, less than 0.008 µg/mL.

`CO/N=C(\C(=O)N[C@@H]1C(=O)N2C(C(=O)[O-])=C(C[n+]3cscc3C)CS[C@H]12)c1csc(N)n1`: the MIC in the test on Staphylococcus aureus [1] worked out at 4 µg/mL (≈ 8.09 µM); in the test on Pseudomonas aeruginosa [2], 16 µg/mL (≈ 32.4 µM); in the test with Klebsiella pneumoniae [3] it was 8 µg/mL (≈ 16.2 µM); in the test with Serratia marcescens it was 0.25 µg/mL (≈ 0.505 µM); in the test on Klebsiella pneumoniae [4] (setting [12]), 0.06 µg/mL (≈ 0.121 µM); in the test on Escherichia coli [5] (setting [13]) it was 0.06 µg/mL (≈ 0.121 µM). For the same molecule, the MIC in the test on Enterococcus faecium turned out to be 32 µg/mL (≈ 64.7 µM); in the test with Staphylococcus aureus [6] it was 2 µg/mL (≈ 4.04 µM); with Escherichia coli [7] it was 0.06 µg/mL (≈ 0.121 µM); in the test with Enterobacter cloacae [8], 0.25 µg/mL (≈ 0.505 µM); in the test on Pseudomonas aeruginosa [9] it was 32 µg/mL (≈ 64.7 µM); in the test with Streptococcus pneumoniae, 0.03 µg/mL (≈ 0.0607 µM). Further, the results for the MIC with Enterobacter cloacae [10] and with Streptococcus pyogenes were 8 µg/mL (≈ 16.2 µM) and 0.03 µg/mL (≈ 0.0607 µM), respectively.

As to `CO/N=C(\C(=O)N[C@@H]1C(=O)N2C(C(=O)[O-])=C(C[n+]3ccc4ccoc4c3)CS[C@H]12)c1csc(N)n1`, the MIC in the test on Staphylococcus aureus [1] was 8 µg/mL (≈ 15.5 µM); in the test with Pseudomonas aeruginosa [2] it was 2 µg/mL (≈ 3.89 µM); with Klebsiella pneumoniae [3], 4 µg/mL (≈ 7.77 µM); in the test on Serratia marcescens it was 0.03 µg/mL (≈ 0.0583 µM); with Klebsiella pneumoniae [4] (setting [12]) it was 0.015 µg/mL (≈ 0.0292 µM); in the test on Escherichia coli [5] (setting [13]) it was 0.015 µg/mL (≈ 0.0292 µM). In addition, the MIC in the test with Enterococcus faecium was more than 128 µg/mL; with Staphylococcus aureus [6], 1 µg/mL (≈ 1.94 µM); with Escherichia coli [7] it was 0.015 µg/mL (≈ 0.0292 µM); in the test with Enterobacter cloacae [8], 0.06 µg/mL (≈ 0.117 µM); with Pseudomonas aeruginosa [9], 8 µg/mL (≈ 15.5 µM); with Streptococcus pneumoniae, 0.015 µg/mL (≈ 0.0292 µM). Besides, the MIC with Enterobacter cloacae [10] was 8 µg/mL (≈ 15.5 µM); with Streptococcus pyogenes, less than 0.008 µg/mL.

By ED50 is commonly meant the midpoint of the dose-response relation. Higher therefore signals a need for a large dose. In the case of `CO/N=C(\C(=O)N[C@@H]1C(=O)N2C(C(=O)[O-])=C(C[n+]3ccc(CC(=O)NO)cc3)CS[C@H]12)c1csc(N)n1` (stereo in doubt; 10), the ED50 in the test with Staphylococcus aureus [11] is 7.2 mg/kg. Moreover, the MIC in the test with Klebsiella pneumoniae [4] turned out to be 0.03 µg/mL (≈ 0.0548 µM); with Escherichia coli [5], 0.25 µg/mL (≈ 0.457 µM).

Regarding `CO/N=C(\C(=O)N[C@@H]1C(=O)N2C(C(=O)[O-])=C(C[n+]3cccc4cc[nH]c43)CS[C@H]12)c1csc(N)n1`, the MIC in the test on Staphylococcus aureus [1] was found to be 8 µg/mL (≈ 15.6 µM); in the test with Pseudomonas aeruginosa [2] it was 32 µg/mL (≈ 62.3 µM); in the test with Klebsiella pneumoniae [3] it was 64 µg/mL (≈ 125 µM); in the test with Serratia marcescens, 0.5 µg/mL (≈ 0.974 µM); in the test with Klebsiella pneumoniae [4] (setting [12]), 0.06 µg/mL (≈ 0.117 µM); with Escherichia coli [5] (setting [13]), 0.125 µg/mL (≈ 0.243 µM). The MIC in the test on Enterococcus faecium is more than 128 µg/mL; in the test on Staphylococcus aureus [6] it was 1 µg/mL (≈ 1.95 µM); with Escherichia coli [7] it was 0.5 µg/mL (≈ 0.974 µM); in the test with Enterobacter cloacae [8], 2 µg/mL (≈ 3.89 µM); in the test on Pseudomonas aeruginosa [9], 64 µg/mL (≈ 125 µM); in the test with Streptococcus pneumoniae, 0.015 µg/mL (≈ 0.0292 µM). The figures for the MIC with Enterobacter cloacae [10] and with Streptococcus pyogenes were 32 µg/mL (≈ 62.3 µM) and less than 0.008 µg/mL, respectively.

For `CO/N=C(\C(=O)N[C@@H]1C(=O)N2C(C(=O)[O-])=C(C[n+]3cccc4c(O)cccc43)CS[C@H]12)c1csc(N)n1`, the MIC worked out at 2 µg/mL (≈ 3.7 µM) in the test on Staphylococcus aureus [1]; 8 µg/mL (≈ 14.8 µM) with Pseudomonas aeruginosa [2]; 8 µg/mL (≈ 14.8 µM) in the test with Klebsiella pneumoniae [3]; 0.5 µg/mL (≈ 0.925 µM) in the test on Serratia marcescens; 0.03 µg/mL (≈ 0.0555 µM) with Klebsiella pneumoniae [4] (setting [12]); 0.06 µg/mL (≈ 0.111 µM) in the test on Escherichia coli [5] (setting [13]). For the same molecule, the MIC in the test on Enterococcus faecium amounted to 128 µg/mL (≈ 237 µM); in the test on Staphylococcus aureus [6] it was 2 µg/mL (≈ 3.7 µM); in the test on Escherichia coli [7], 0.03 µg/mL (≈ 0.0555 µM); with Enterobacter cloacae [8], 0.5 µg/mL (≈ 0.925 µM); in the test with Pseudomonas aeruginosa [9], 8 µg/mL (≈ 14.8 µM); in the test on Streptococcus pneumoniae, 0.03 µg/mL (≈ 0.0555 µM). The MIC in the test on Enterobacter cloacae [10] stood at 32 µg/mL (≈ 59.2 µM); with Streptococcus pyogenes it was 0.015 µg/mL (≈ 0.0277 µM).

Regarding `CCC(C)Nc1nc2cc[n+](CC3=C(C(=O)[O-])N4C(=O)[C@@H](NC(=O)/C(=N\OC)c5csc(N)n5)[C@H]4SC3)cc2s1` (stereo partly specified), the MIC in the test with Staphylococcus aureus [1] turned out to be 0.5 µg/mL (≈ 0.83 µM); in the test on Pseudomonas aeruginosa [2], 16 µg/mL (≈ 26.5 µM); with Klebsiella pneumoniae [3] it was 2 µg/mL (≈ 3.32 µM); with Serratia marcescens it was 0.5 µg/mL (≈ 0.83 µM); in the test on Klebsiella pneumoniae [4] (setting [12]), 0.008 µg/mL (≈ 0.0133 µM); in the test on Escherichia coli [5] (setting [13]), 0.015 µg/mL (≈ 0.0249 µM). Further, the MIC in the test with Enterococcus faecium is 128 µg/mL (≈ 212 µM); with Staphylococcus aureus [6], 0.5 µg/mL (≈ 0.83 µM); in the test with Escherichia coli [7], 0.06 µg/mL (≈ 0.0995 µM); with Enterobacter cloacae [8], 0.25 µg/mL (≈ 0.415 µM); in the test with Pseudomonas aeruginosa [9] it was 128 µg/mL (≈ 212 µM); in the test on Streptococcus pneumoniae, 0.008 µg/mL (≈ 0.0133 µM). The MIC in the test on Enterobacter cloacae [10] stood at 2 µg/mL (≈ 3.32 µM); in the test with Streptococcus pyogenes it was 0.008 µg/mL (≈ 0.0133 µM).
